Measured values published in the supplement of paper PMC10307832.

What was measured:
Experiment in all cases: relative viability (nuclei count vs DMSO), 5 days (fraction); higher = more cells survive
[1] = compound: CN1C=C(C2=CC=CC=C21)/C=C\3/C4=C(C=CC=N4)NC3=O + CS(=O)(=O)N1CCN(Cc2cc3nc(-c4cccc5[nH]ncc45)nc(N4CCOCC4)c3s2)CC1 [Pictilisib] (partner 1 µM)
How it was run: (§1)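 Relative viability is defined as nuclei in treated wells over nuclei in vehicle wells. Duplicate plates were run and medians reported. Lung cancer cell lines in 1536-well plates were dosed by pin tool one day after seeding, with one drug or with a fixed anchor-drug dose plus five library-drug doses (not always all listed) in √10 steps, and nuclei were counted after 5 days.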

[2] = compound: CN1C=C(C2=CC=CC=C21)/C=C\3/C4=C(C=CC=N4)NC3=O + COc1cc2c(Oc3ccc(NC(=O)C4(C(=O)Nc5ccc(F)cc5)CC4)cc3F)ccnc2cc1OCCCN1CCOCC1 [Foretinib] (partner 0.25 µM)
How it was run: as §1

[3] = compound: CN1C=C(C2=CC=CC=C21)/C=C\3/C4=C(C=CC=N4)NC3=O + C[C@@H](Oc1cc(-c2cnn(C3CCNCC3)c2)cnc1N)c1c(Cl)ccc(F)c1Cl [Crizotinib] (partner 1 µM)
How it was run: as §1

Trametinib + Dasatinib = compound: CC(=O)Nc1cccc(-n2c(=O)n(C3CC3)c(=O)c3c(Nc4ccc(I)cc4F)n(C)c(=O)c(C)c32)c1 [Trametinib] + Cc1nc(Nc2ncc(C(=O)Nc3c(C)cccc3Cl)s2)cc(N2CCN(CCO)CC2)n1 [Dasatinib] (partner 0.075 µM)
How it was run: as §1

Cell Line: UMC-11
- relative viability ([1]; first compound 0.02 µM): 0.742
- relative viability ([1]; first compound 0.06325 µM): 0.553
- relative viability ([1]; first compound 0.2 µM): 0.549
- relative viability ([1]; first compound 0.6325 µM): 0.763
- relative viability ([1]; first compound 2 µM): 0.875
- relative viability ([2]; first compound 0.02 µM): 0.835
- relative viability ([2]; first compound 0.06325 µM): 0.979
- relative viability ([2]; first compound 0.2 µM): 1.06
- relative viability ([2]; first compound 0.6325 µM): 1.14
- relative viability ([2]; first compound 2 µM): 1.29
- relative viability ([3]; first compound 0.02 µM): 0.448
- relative viability ([3]; first compound 0.06325 µM): 0.543
- relative viability ([3]; first compound 0.2 µM): 0.578
- relative viability ([3]; first compound 0.6325 µM): 0.855
- relative viability ([3]; first compound 2 µM): 0.786
- relative viability (Trametinib + Dasatinib; first compound 0.0025 µM): 0.446
- relative viability (Trametinib + Dasatinib; first compound 0.007906 µM): 0.509
- relative viability (Trametinib + Dasatinib; first compound 0.025 µM): 0.385
- relative viability (Trametinib + Dasatinib; first compound 0.07906 µM): 0.491
- relative viability (Trametinib + Dasatinib; first compound 0.25 µM): 0.49
